Test results reported in paper PMC4919790, “Allosteric modulation of AURKA kinase activity by a small-molecule inhibitor of its protein-protein interaction with TPX2” (Scientific Reports, 2016).
Read-outs that look alike come from different tables or passages of the source.

Columns and labels:
[1] = target: T1, AURKA (Aurora-AG-126-390) (Homo sapiens, UniProt O14965); assay: Isothermal titration calorimetry; type: binding; conditions: for Ligand efficiency (Leff): calculated using Ki or Kd values; for Kd: 25 °C
T1 construct: was titrated into Aurora-AG-126-390 protein solution (30 μM); extra N-terminal Gly from cloning (the 'G' of the construct name); 6xHis (read by me from reverse primer 4); made in house; host or cells: E. coli BL21 (DE3) with pUBS550, co-expressed with lambda phosphatase (pBAT4-λPP)
T1 sequence (O14965 126-390): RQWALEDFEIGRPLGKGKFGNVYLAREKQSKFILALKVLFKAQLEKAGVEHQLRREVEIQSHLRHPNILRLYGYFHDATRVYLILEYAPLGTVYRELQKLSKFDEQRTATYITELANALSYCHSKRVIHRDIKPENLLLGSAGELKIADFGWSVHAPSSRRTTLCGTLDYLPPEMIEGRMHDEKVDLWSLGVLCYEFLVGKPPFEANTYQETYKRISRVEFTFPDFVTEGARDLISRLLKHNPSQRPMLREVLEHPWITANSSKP
Method: Calorimetric titrations were performed on an iTC200 (MicroCal, Inc.) device. Protein was buffer exchanged into ITC buffer (Buffer C with 2% DMSO). Titration experiments were performed at 25 °C with an initial injection (0.4 μL) at a duration of 0.8 s, followed by 19 injections (2 μL) at a duration of 4 s. […] Binding isotherms were fit by non-linear regression using the single-site model provided by Origin software (MicroCal, Inc.). The stoichiometry of the interaction (N), equilibrium association constant (Ka) and change of enthalpy (ΔH) were floated during the fitting.

[2] = target: T2, AURKA-TPX2 interaction (His-tagged AURKA123–403 / TAMRA-labelled TPX2 1–43) (Homo sapiens, UniProt O14965); assay: Fluorescence anisotropy (FA) competition assay: displacement of TAMRA-TPX2 1-43 from AURKA123-403
T2 sequence (O14965 123-403): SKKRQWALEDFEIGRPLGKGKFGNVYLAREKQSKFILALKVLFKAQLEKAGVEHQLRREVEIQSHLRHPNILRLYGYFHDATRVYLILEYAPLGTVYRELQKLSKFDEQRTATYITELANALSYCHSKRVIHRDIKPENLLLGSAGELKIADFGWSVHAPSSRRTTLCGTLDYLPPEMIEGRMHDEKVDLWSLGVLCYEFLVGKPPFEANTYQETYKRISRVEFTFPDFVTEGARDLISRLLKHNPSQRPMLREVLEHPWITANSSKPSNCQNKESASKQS
Text: The HTS actives were resupplied and retested to check for dose-dependent inhibition of the PPI in FA assay.

[3] = target: T3, pT287/pT288 AURKA126–390 (Homo sapiens, UniProt O14965); assay: HTRF in vitro kinase assay (KinEASE, Cisbio); type: biochemical; conditions: excess inhibitor (25x Ki), absence of TPX2
T3 construct: a T287/T288 doubly-phosphorylated recombinant AURKA126–390 in the absence of TPX2; 6xHis (inferred from reverse primer 4 of AurAG-126-390); made in house; host or cells: E. coli BL21 (DE3) with pUBS550
T3 sequence (O14965 126-390): T1 sequence (O14965 126-390)
Method: To test this hypothesis, we used a commercially available in vitro kinase assay (KinEASE, Cisbio) to measure AURKA-dependent phosphorylation of a generic peptide substrate by homogeneous time-resolved fluorescence (HTRF) assay (Supplementary Fig. 9). Enzymatic phosphorylation occurred in the presence of the substrate peptide and ATP, and the phosphorylated substrate was subsequently detected in a proprietary antibody detection step. These studies were performed using a T287/T288 doubly-phosphorylated recombinant AURKA126–390 in the absence of TPX2.
The volume of enzymatic reaction was 10 μL, [AURKA] = 5 ng/well, excess propriatory peptide substrate (1 μM) and ATP (100 μM). The reaction was incubated for 10 min. MLN8237 is an ATP-competitive inhibitor used as a positive control. […] Error bars represent standard deviation (n = 3).

[4] = target: T4, AURKAGSMGS-126-390 (non-phosphorylated, uncleaved His-tag) (Homo sapiens, UniProt O14965); assay: In vitro auto-phosphorylation assay (anti-pT288 Western blot); type: biochemical; conditions: AurkinA 100 μM, ATP 100 μM, protein 30 μM, up to 40 min
T4 construct: Aurora-A kinase construct AurAGSMGS-126-391 was purified as described above; made in house; host or cells: E. coli BL21 (DE3) with pUBS550, co-expressed with lambda phosphatase
T4 sequence (O14965 126-391): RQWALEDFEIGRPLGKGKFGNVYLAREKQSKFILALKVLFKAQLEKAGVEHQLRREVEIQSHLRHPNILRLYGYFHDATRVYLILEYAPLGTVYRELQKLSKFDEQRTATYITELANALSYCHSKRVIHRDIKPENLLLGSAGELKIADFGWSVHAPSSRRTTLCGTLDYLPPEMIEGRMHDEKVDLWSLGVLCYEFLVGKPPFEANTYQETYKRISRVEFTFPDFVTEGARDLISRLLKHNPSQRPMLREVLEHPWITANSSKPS
Method: It has been extensively reported that auto-phosphorylation of […] in the activation loop stimulates AURKA kinase activity. […] For autophosphorylation experiments Aurora-A kinase construct […]-126-391 was purified as described above but using buffers containing no ATP and His-tag was left on the N-terminus. […] Control sample contained JNJ-7706621 (100 μM) that was added to the reaction prior ATP. 15 ng of each sample were run in 11% SDS-PAGE gels. Western blots were prepared by electro-blotting SDS-PAGE gels onto PVDF membranes (Millipore) and probing with anti-penta-his-tag antibody (1:2000 dilution, Qiagen, 34660) or anti-Aurora-A phosphoT288 antibodies (1:1000 dilution, Abcam, ab195748), followed by HRP conjugated […]-mouse antibodies (GE Healthcare) or HRP conjugated goat anti-rabbit antibodies (Abcam), respectively.

[5] = system: AURKA on the spindle in mitotic HeLa cells; assay: High-content microscopy assay of AURKA mislocalisation from spindle microtubules; type: cell-based; conditions: Homo sapiens, 2 h treatment, % cells with below threshold AURKA intensity under TPX2 mask
Method: For quantitative determination of Aurora-A mislocalisation from spindle microtubules, cells were plated at a density of 0.75 × 10^5 cells per well of a clear flat bottom 96-well plate. On each plate a set of wells were treated with doxycycline as a positive control. After 24 h the compounds were diluted in […] Bortezomib (Selleck Chemicals) and treated for 2 h. Hereafter all steps were carried out at room temperature. The cells were fixed by addition of freshly prepared PHEM-buffered formaldehyde (100 μL per well) for 10 minutes (100 mM PIPES, 20 mM HEPES, 5 mM EGTA, 2 mM MgCl2, 0.2% TritonX-100, 6.4% formaldehyde). These were permeablised with 100 μl of PBS-T-T (1X PBS/0.1% Triton- 100/0.1% Tween-20) for 10 min, blocked in 3% BSA-PBS-T-T for 30 min. Hereafter all the steps including dilution of antibodies was done in the blocking solution. A cocktail of primary antibodies (50 μL, mouse anti-TPX2, Abcam 32795, 18D5-1, 1:500; rabbit anti-Aurora A, Millipore EP1008Y, 1:1000) for 1.5 h and washed thrice with the blocking solution. […]
The plates were scanned using Molecular Translocation protocol with 40X objective with 3 flurophore recognising channels. […] The software generated an overlay of TPX2-stained spindles (channel 2), and the average intensity of the Aurora-A (channel 3) within that mask was scored. […]

[6] = system: phosphorylated T288 (pT288) AURKA in mitotic HeLa cells; assay: High-content AURKA T288-dephosphorylation assay; type: cell-based; conditions: Homo sapiens, read-out: EC50, % cells with below threshold pT288
Method: A modified version of the Aurora A mislocalisation assay using the same cells, doxycycline-treated controls, drugging plan, Bortezomib treatment, fixing protocol, Hoechst staining and secondary antibodies as above. The primary antibodies used were anti-phospho Aurora A Thr288 (Cell Signaling, #3079, 1:500) and anti-Histone H3 phospho S10 (Abcam, 14955, 1:2000). High-content imaging settings were the same as for the mislocalisation assay, but analysis was performed using the CellHealthProfiling v4 Bioapplication. Cells were identified in the Hoechst channel as above, and the resulting nuclear mask used for all subsequent measurements. Mitotic cells were selected from the images on the basis of phospho-histone H3 positivity, using a threshold 10 times above the image background. These selected cells were then measured for phospho-Aurora A staining intensity within a target area defined by expanding the nuclear mask by 8 pixels then collapsing it using a threshold for the phospho-Aurora channel, set to 3 times the background staining in this channel. Assay thresholds were calculated from the negative control wells of each plate as for the mislocalisation assay and ‘% dephosphorylated Aurora A T288’ scores were calculated for each well. EC50 values were calculated from four-parameter dose-response curves that were fitted using Prism GraphPad software (La Jolla, CA).

[7] = target: T5, AURKA / mCherry-TPX2 1–43 (Homo sapiens, UniProt O14965); assay: Co-immunoprecipitation of AURKA and mCherry-TPX2 1-43 from HeLa cell lysates; conditions: cell lysates (500 µg) incubated 2 h, 25-400 µM, +DOX
T5 construct: endogenous in cells; host or cells: HeLa FlpIn TREx lysate; AURKA endogenous, mCherry-TPX2 1-43 stably transfected and doxycycline-induced
T5 sequence (O14965 1-403): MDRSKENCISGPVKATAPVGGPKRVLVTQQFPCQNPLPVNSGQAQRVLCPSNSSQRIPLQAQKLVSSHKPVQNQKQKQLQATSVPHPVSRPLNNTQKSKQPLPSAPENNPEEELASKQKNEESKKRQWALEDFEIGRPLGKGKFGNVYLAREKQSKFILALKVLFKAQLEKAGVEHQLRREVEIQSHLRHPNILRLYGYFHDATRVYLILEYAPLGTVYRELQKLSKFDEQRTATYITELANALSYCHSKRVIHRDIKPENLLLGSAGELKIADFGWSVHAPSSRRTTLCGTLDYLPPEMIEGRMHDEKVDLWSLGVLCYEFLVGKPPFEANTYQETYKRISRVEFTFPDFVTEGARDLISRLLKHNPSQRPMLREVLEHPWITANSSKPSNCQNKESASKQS
Method: Stable HeLa FlpIn TREx cell line expressing a fusion mCherry-TPX2_1–43 protein upon addition of doxycycline ([…]) was generated (Supplementary Methods). This cell line was used for further experiments. For immunoblotting, proteins were extracted in lysis buffer (50 mM HEPES, pH 7.4; 100 mM NaCl, 0.5% NP-40, 10 mM EDTA, 20 mM β-glycerophosphate, 1 mM DTT, 1 mM sodium orthovanadate, 1 mM PMSF, protease inhibitors and phosphatase inhibitor (Roche)). 0.5 mg of lysate was used for co-immunoprecipitation. mCherry pull down was performed using RFP-trap (Chromotrap) following manufacturers’ instructions. Extracts were resolved by SDS-PAGE, transferred to PVDF membrane, blocked in TBS-Tween (50 mM Tris pH 7.6, 150 mM NaCl, 0.1% Tween-20) plus 5% non-fat dried milk, and probed with primary antibodies at 4 °C overnight. Membrane was incubated with secondary mouse HRP (GE Healthcare, NXA931) and rabbit HRP antibodies (Jackson Laboratories, 111-036-047) for 1 h at room temperature and the signal was developed using ECL or ECL prime reagent (GE Healthcare).
co -‐immunoprecipitation
(1 picture or pasted object on this page, not shown here)

[8] = Average IC50, Supplementary Table 1, FA assay
[9] = Calculated Ki, Supplementary Table 1, free-concentration corrected Cheng-Prusov
[10] = IC50, inhibition of AURKA:TPX2 interaction in FA assay, Fig. 1b
[11] = Ki from FA competition assay, free-concentration corrected Cheng-Prusov equations

Row | Compound | Ligand efficiency (Leff) [1] | IC50 [2, 8] [µM] | Ki [2, 9] [µM] | IC50 [2, 10] [µM] | Ki [2, 11] [µM] | N (stoichiometry, ITC fit) ([1]; single-site model fit) [Sites] | ∆H (ITC fit) ([1]; single-site model fit) [cal/mol] | ∆S (ITC fit) ([1]; single-site model fit) [cal/mol/deg] | further results
1 | O=C(O)c1cc(-c2ccccc2)nc2ccccc12 [compound 3, 2-phenyl-4-carboxyquinoline, reference compound] | 0.31 | 289 | 62.5 | 63 | 68 |  |  |  | 
2 | O=C(O)c1cc(-c2cccc(Br)c2)nc2c(F)cccc12 [AurkinA, 2-(3-bromophenyl)-8-fluoroquinoline-4-carboxylic acid] |  |  |  |  |  | 0.924 | -23090 | -52.6 | -T∆S of binding ([1]; ITC): 15.7 kcal/mol; ∆H of binding ([1]; ITC): -23.1 kcal/mol; Maximal inhibition of kinase activity (plateau) [3]: ~ 75%; Effect on auto-phosphorylation of AURKA (pT288) [4]: significantly delayed; EC50 [5]: 85 µM; EC50 [6]: 135 µM; Effect on co-immunoprecipitation of AURKA with RFP (mCherry-TPX2 1-43) [7]: inhibited
3 | O=C(O)c1ccccc1NC(=O)c1cc(-c2ccccc2)nc2ccccc12 [compound 1] | 0.25 |  |  | 41 | 8.9 | 0.975 ±0.0300 | -5917 ± 239.7 | 2.92 | Kd ([1]; read-out: Kd (ITC)): 10.6 µM; Kd ([1]; read-out: pKd (ITC) (converted)): 10.5 µM; K (association constant, ITC fit) ([1]; single-site model fit): 94700 ± 7610 M⁻¹; Effect of JNJ-7706621 on the compound's inhibition of the AURKA-TPX2 1-43 interaction ([2]; [JNJ] = 0.4 μM vs DMSO): unaffected
4 | O=C(O)c1cc(-c2cccc(Br)c2)nc2ccc(Cl)cc12 [AA29] |  | 34.4 | 7.4 |  |  |  |  |  | 
5 | O=C(O)c1cc(-c2cccc(Br)c2)nc2ccccc12 [AA30] |  | 25.6 | 5.5 |  |  |  |  |  | 
